The source of these data is ChEMBL document CHEMBL5236571, “Dynamic Covalent Template-Guided Screen for Nucleic Acid-Targeting Agents” (J Med Chem, 2022).

Activity calls are given as the source filed them. The rule behind the calls is not given here. Where only a bound is given, the exact number is not on record here.

For assay [1], the system named is r(CUG) repeat expansion. In words: Inhibition of d(CTG.CAG)90 transcription (unknown origin) assessed as inhibition of r(CUG)90 formation at 10 uM incubated for 3.5 hrs measured after 1.5 hrs in presence of T7 RNA polymerase by SDS-PAGE analysis relative to control. The class given is nucleic-acid assay. The conditions noted are these: Homo sapiens, time 5.0 hrs.

Assay [2] has as its target r(CUG) repeat expansion. Description: Inhibition of d(CTG.CAG)90 transcription (unknown origin) assessed as inhibition of r(CUG)90 formation incubated for 3.5 hrs measured after 1.5 hrs in presence of T7 RNA polymerase by SDS-PAGE analysis. The class given is nucleic-acid assay, Homo sapiens.
Assay [3] concerns r(CUG) repeat expansion. Description: Inhibition of d(CTG.CAG)90 transcription (unknown origin) assessed as inhibition of r(CUG)90 formation at 60 uM incubated for 3.5 hrs measured after 1.5 hrs in presence of T7 RNA polymerase by SDS-PAGE analysis. The class given is nucleic-acid assay. The conditions noted are these: Homo sapiens, time 5.0 hrs.

On to `N=C(NCc1ccc(N)cc1)c1ccc(C(=N)NCc2ccc(/N=C/c3ccc(/C=N/CCCCNc4nc(N)nc(NCCCCN)n4)cc3)cc2)cc1`, for which the inhibition in the assay on r(CUG) repeat expansion [1] is 21.3%. Moreover, on r(CUG) repeat expansion [2], the IC50 was more than 60 µM.

For `COc1ccc2nc3cc(Cl)ccc3c(NC/C=N/CCCCNc3nc(N)nc(NCCCC/N=C/c4ccc(CNc5nc(N)nc(N)n5)cc4)n3)c2c1`, the inhibition with r(CUG) repeat expansion [1] was found to be 19.9%. The IC50 on r(CUG) repeat expansion [2] was 44 µM.

For the compound `N=C(NCCCCNc1nc(N)nc(NCc2ccc(/C=N/c3ccc(CNc4nc(N)nc(NCc5ccc(N)cc5)n4)cc3)cc2)n1)c1ccc(C(=N)NCCCCNc2nc(N)nc(NCc3ccc(CO)cc3)n2)cc1`, in the assay with r(CUG) repeat expansion [3], the inhibition result is “Active”. In the assay with r(CUG) repeat expansion [1], the inhibition came to 34.8%. For the same compound, at r(CUG) repeat expansion [2], the IC50 was determined as 25.9 µM.

In the case of `N=C(NCCCCNc1nc(N)nc(NCc2ccc(/C=N/CCCCn3cnc4c(N)ncnc43)cc2)n1)c1ccc(C(=N)NCCCCNc2nc(N)nc(NCc3ccc(/C=N/c4ccc(CNC(=N)c5ccc(C(=N)NCc6ccc(N)cc6)cc5)cc4)cc3)n2)cc1`, the inhibition in the assay with r(CUG) repeat expansion [1] is 13.9%. Further, on r(CUG) repeat expansion [2], the IC50 is 34.2 µM.

For the compound `COc1ccc2nc3cc(Cl)ccc3c(NC/C=N/CCCCNC(=O)c3cccc4c(NCCCCNc5nc(N)nc(N)n5)c5ccccc5nc34)c2c1`, the inhibition in the assay with r(CUG) repeat expansion [1] amounted to 23.2%. The IC50 on r(CUG) repeat expansion [2] was found to be 36.2 µM.
